Test results as given in patent US20230167505A1, “CIRCULATING TUMOR DNA AS A BIOMARKER FOR LEUKEMIA TREATMENT” (Cardiff Oncology, Inc., priority 2020, published 2023).
Where two headings read alike, the source gives them in different places.

Legend:
[1] = system: cell lines, both from solid as well as hematologic tumors; conditions: large number of cell lines; cited from earlier work
[2] = system: patients with advanced/metastatic solid tumors; conditions: single agent, phase I; cited from earlier work
PLK1 substrate, TCTP = test: Target engagement in circulating blasts (pTCTP/TCTP in PBMCs, predose vs 3 hours postdose); assay type: in vivo, human
Procedure: Samples were analyzed with a FACSCanto II (BD Biosciences).
Protein extract preparation and immunoblot: Protein extracts were prepared from PBMCs isolated from CellSave tube and from HL-60 cells using M-PER buffer with Protease and Phosphatase Inhibitor Cocktails (Thermo Fisher Scientific). Protein concentration was measured with the Pierce BCA Protein Assay Kit (Thermo Fisher Scientific). Western blots were performed as Simple Western Assays using the Wes System (ProteinSimple), a combination of capillary electrophoresis and immunodetection techniques, following the manufacturer's protocols. Primary antibodies were purchased from Cell Signaling Technology: phospho-TCTP-Ser46 (#5251) and TCTP (#5128). Quantitative analysis was performed using Compass Software (ProteinSimple). Signal intensity (area) of pTCTP was normalized to the peak area of TCTP and reported as pTCTP/TCTP or % pTCTP.
Target engagement in blasts was determined by measuring relative pTCTP/TCTP protein levels in PBMCs isolated from patient blood prior to and 3 hours after the first dose of onvansertib (FIG. 8C).

[3] = Pharmacokinetics: onvansertib plasma concentrations by LC/MS-MS; assay type: in vivo, human; conditions: for Cmax / Tmax / AUC(0-t) / half-life: human, plasma, oral; for AUC(0-t): read-out: AUC(0-24)
Procedure: Pharmacokinetics: Blood samples were collected from patients for pharmacokinetic analysis on days 1 and 5 at predose; at 0.5, 1, 2, 3, 4, 8, and 24 hours after administration of onvansertib; and once on days 8, 15, and 22. Onvansertib plasma concentrations were determined by LC/MS-MS at PRA Bioanalytical Laboratory. The pharmacokinetics parameters, including maximum plasma concentration (Cmax), time to maximum plasma concentration (tmax), half-life (t1/2), and AUC, were calculated for each patient using Phoenix WinNonlin.

PLK1 = PLK1 (Homo sapiens, UniProt P53350); conditions: panel of 296 kinases, including other PLK members; cited from earlier work
Chain of PLK1 (P53350 whole entry): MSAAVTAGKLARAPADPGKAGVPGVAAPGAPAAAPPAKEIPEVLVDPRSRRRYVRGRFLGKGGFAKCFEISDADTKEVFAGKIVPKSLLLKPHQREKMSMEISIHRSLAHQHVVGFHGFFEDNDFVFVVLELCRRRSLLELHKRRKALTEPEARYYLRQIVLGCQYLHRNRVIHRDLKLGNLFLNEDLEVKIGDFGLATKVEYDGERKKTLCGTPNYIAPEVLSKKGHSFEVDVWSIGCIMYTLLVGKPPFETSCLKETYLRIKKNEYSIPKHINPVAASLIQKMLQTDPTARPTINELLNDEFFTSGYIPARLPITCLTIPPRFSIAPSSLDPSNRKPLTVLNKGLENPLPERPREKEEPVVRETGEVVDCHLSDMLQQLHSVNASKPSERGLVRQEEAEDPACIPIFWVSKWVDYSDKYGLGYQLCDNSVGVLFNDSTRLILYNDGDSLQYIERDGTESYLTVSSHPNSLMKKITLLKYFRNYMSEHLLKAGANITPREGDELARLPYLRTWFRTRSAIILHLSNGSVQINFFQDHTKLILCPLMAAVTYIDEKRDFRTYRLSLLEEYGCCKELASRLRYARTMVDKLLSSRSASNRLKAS

[4] = 12 mg/m^2, Cycle 1 day 5, mean ± SD, 12 mg/m^2 + Decitabine, 4 patients
[5] = 12 mg/m^2, Cycle 1 day 5, mean ± SD, 12 mg/m^2 + LDAC, 3 patients
[6] = 18 mg/m^2, Cycle 1 day 5, mean ± SD, 18 mg/m^2 + Decitabine, 3 patients
[7] = 18 mg/m^2, Cycle 1 day 5, mean ± SD, 18 mg/m^2 + LDAC, 3 patients
[8] = 40 mg/m^2, Cycle 1 day 5, mean ± SD, 40 mg/m^2 + LDAC, 3 patients
[9] = 60 mg/m^2, Cycle 1 day 5, mean ± SD, 60 mg/m^2 + Decitabine, 3 patients
[10] = 60 mg/m^2, Cycle 1 day 5, mean ± SD, 60 mg/m^2 + LDAC, 5 patients
[11] = 90 mg/m^2, Cycle 1 day 5, mean ± SD, 90 mg/m^2 + Decitabine, 6 patients
[12] = Cycle 1 day 5, mean ± SD, 27 mg/m^2 + Decitabine, 3 patients
[13] = Cycle 1 day 5, mean ± SD, 27 mg/m^2 + LDAC, 3 patients
[14] = Cycle 1 day 5, mean ± SD, 40 mg/m^2 + Decitabine, 4 patients

## CN1CCN(c2ccc(OC(F)(F)F)c(Nc3ncc4c(n3)-c3c(c(C(N)=O)nn3CCO)CC4)c2)CC1 [onvansertib, 1-(2-hydroxyethyl)-8-{[5-(4-methylpiperazin-1-yl)-2-(trifluoromethoxy)phenyl]amino}-4,5-dihydro-1H-pyrazolo [4,3-h] quinazoline-3-carboxamide]
[1]
  activity in proliferation assays: low nanomolar activity
[2]
  primary dose-limiting toxicities: neutropenia and thrombocytopenia
  recovery from hematologic toxicities: ≤ 3 weeks
PLK1 substrate, TCTP; 24 evaluable patients with at least 10% circulating blasts
  patients with target engagement (≥50% decrease in pTCTP/TCTP at 3 hours postdose versus predose): 33%
PLK1 substrate, TCTP; nontarget engagement patients (2 of 11)
  patients with ≥20% decrease in bone marrow blasts: 18%
PLK1 substrate, TCTP; target engagement patients (4 of 6)
  patients with ≥20% decrease in bone marrow blasts: 67%
[3]; both arms, 12-90 mg/m^2
  Cmax and AUC0-24 versus dose: increased proportionally with the administrated dose
[3]; [4]
  Cmax: 163 ± 90 nM
  Tmax: 2.5 ± 0.6 h
  AUC(0-t): 2.27 µM·h
[3]; 12 mg/m^2, Cycle 1 day 5, mean ± SD, 12 mg/m^2 + Decitabine, 4 patients, read-out: t1/2 (converted)
  half-life: 26 ± 16 h
[3]; [5]
  Cmax: 153 ± 84 nM
  Tmax: 2 ± 1 h
  AUC(0-t): 2.15 µM·h
[3]; 12 mg/m^2, Cycle 1 day 5, mean ± SD, 12 mg/m^2 + LDAC, 3 patients, read-out: t1/2 (converted)
  half-life: 32 ± 21 h
[3]; [6]
  Cmax: 230 ± 129 nM
  Tmax: 2.7 ± 0.6 h
  AUC(0-t): 3.38 µM·h
[3]; 18 mg/m^2, Cycle 1 day 5, mean ± SD, 18 mg/m^2 + Decitabine, 3 patients, read-out: t1/2 (converted)
  half-life: 21 ± 7 h
[3]; [7]
  Cmax: 109 ± 39 nM
  Tmax: 3 ± 1 h
  AUC(0-t): 1.73 µM·h
[3]; 18 mg/m^2, Cycle 1 day 5, mean ± SD, 18 mg/m^2 + LDAC, 3 patients, read-out: t1/2 (converted)
  half-life: 33 ± 18 h
[3]; 40 mg/m^2, Cycle 1 day 5, mean ± SD, 40 mg/m^2 + Decitabine, 4 patients, read-out: t1/2 (converted)
  half-life: 25 ± 15 h
[3]; [8]
  Cmax: 350 ± 104 nM
  Tmax: 1.7 ± 1.2 h
  AUC(0-t): 4.27 µM·h
[3]; 40 mg/m^2, Cycle 1 day 5, mean ± SD, 40 mg/m^2 + LDAC, 3 patients, read-out: t1/2 (converted)
  half-life: 16 ± 7 h
[3]; [9]
  Cmax: 1040 nM
  Tmax: 3.3 ± 1.2 h
  AUC(0-t): 16.3 µM·h
[3]; 60 mg/m^2, Cycle 1 day 5, mean ± SD, 60 mg/m^2 + Decitabine, 3 patients, read-out: t1/2 (converted)
  half-life: 47 ± 8 h
[3]; [10]
  Cmax: 905 ± 330 nM
  Tmax: 2.4 ± 1.1 h
  AUC(0-t): 12.7 µM·h
[3]; 60 mg/m^2, Cycle 1 day 5, mean ± SD, 60 mg/m^2 + LDAC, 5 patients, read-out: t1/2 (converted)
  half-life: 37 ± 13 h
[3]; [11]
  Cmax: 1310 nM
  AUC(0-t): 21.8 µM·h
[3]; 90 mg/m^2, Cycle 1 day 5, mean ± SD, 90 mg/m^2 + Decitabine, 6 patients, read-out: t1/2 (converted)
  half-life: 30 ± 11 h
[3]; [12]
  Cmax: 4110 ± 118 nM
  Tmax: 2 ± 1.7 h
  AUC(0-t): 5.42 µM·h
[3]; Cycle 1 day 5, mean ± SD, 27 mg/m^2 + Decitabine, 3 patients, read-out: t1/2 (converted)
  half-life: 16 ± 6 h
[3]; [13]
  Cmax: 340 ± 219 nM
  Tmax: 2.7 ± 1.5 h
  AUC(0-t): 4.47 µM·h
[3]; Cycle 1 day 5, mean ± SD, 27 mg/m^2 + LDAC, 3 patients, read-out: t1/2 (converted)
  half-life: 18 ± 5 h
[3]; [14]
  Cmax: 539 ± 228 nM
  Tmax: 3.3 ± 1 h
  AUC(0-t): 8.05 µM·h
[3]; day 5 of cycle 1, across doses and arms
  Tmax: 1.7 to 3.3 h
[3]; day 5 of cycle 1, all patients, read-out: median half-life (t1/2) (converted)
  half-life: 26.4 h
[3]; day 5 of cycle 1, all patients, read-out: range of half-life (t1/2)
  half-life: 16 to 46.5 h
PLK1
  specificity for PLK1: high specificity
